Experimental findings from patent US8124637B2, “Anthra [1, 2-d]imidazole-6,11-dione derivatives, preparation method and application thereof” (National Defense Medical Center, priority 2010, dated 2012) are described below.

The target of test [1] is T1, telomerase (total cell lysates of lung cancer cell line H1299) (Homo sapiens, UniProt O14746).
T1 construct: As a source of telomerase, the total cell lysates derived from lung cancer cell line H1299 cells were used; endogenous in cells; host or cells: H1299 lung cancer cells (total cell lysate)
T1 sequence (O14746 whole entry): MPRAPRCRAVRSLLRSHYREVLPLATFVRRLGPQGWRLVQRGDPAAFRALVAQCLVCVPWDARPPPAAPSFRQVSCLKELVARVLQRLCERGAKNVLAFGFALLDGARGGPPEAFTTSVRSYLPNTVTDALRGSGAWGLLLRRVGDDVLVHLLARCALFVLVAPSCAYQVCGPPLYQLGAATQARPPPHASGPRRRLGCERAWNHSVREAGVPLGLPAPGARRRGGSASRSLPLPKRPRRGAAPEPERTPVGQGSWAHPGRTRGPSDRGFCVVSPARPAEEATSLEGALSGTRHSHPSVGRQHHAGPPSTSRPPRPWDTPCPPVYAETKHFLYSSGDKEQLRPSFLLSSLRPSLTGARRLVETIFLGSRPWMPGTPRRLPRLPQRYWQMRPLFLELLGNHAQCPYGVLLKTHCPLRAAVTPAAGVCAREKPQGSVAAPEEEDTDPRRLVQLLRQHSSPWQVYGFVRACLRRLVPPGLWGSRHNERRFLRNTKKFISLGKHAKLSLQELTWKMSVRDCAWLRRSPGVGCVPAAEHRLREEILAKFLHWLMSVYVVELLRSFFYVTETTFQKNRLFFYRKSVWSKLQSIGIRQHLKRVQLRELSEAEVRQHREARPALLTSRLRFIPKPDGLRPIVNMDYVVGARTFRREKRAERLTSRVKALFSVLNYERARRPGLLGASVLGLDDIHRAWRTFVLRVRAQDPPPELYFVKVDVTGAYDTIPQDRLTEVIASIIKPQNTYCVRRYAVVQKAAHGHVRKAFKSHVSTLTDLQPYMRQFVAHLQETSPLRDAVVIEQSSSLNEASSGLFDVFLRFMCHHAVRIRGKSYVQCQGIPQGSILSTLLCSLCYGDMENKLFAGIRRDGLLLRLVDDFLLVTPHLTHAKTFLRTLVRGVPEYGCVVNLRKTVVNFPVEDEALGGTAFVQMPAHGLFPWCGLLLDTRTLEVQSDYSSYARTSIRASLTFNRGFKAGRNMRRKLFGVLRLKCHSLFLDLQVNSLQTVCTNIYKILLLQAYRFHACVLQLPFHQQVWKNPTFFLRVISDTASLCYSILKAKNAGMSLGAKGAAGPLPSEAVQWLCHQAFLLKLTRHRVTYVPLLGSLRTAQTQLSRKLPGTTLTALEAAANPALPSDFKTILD
T1 sequence (O60832 whole entry partner): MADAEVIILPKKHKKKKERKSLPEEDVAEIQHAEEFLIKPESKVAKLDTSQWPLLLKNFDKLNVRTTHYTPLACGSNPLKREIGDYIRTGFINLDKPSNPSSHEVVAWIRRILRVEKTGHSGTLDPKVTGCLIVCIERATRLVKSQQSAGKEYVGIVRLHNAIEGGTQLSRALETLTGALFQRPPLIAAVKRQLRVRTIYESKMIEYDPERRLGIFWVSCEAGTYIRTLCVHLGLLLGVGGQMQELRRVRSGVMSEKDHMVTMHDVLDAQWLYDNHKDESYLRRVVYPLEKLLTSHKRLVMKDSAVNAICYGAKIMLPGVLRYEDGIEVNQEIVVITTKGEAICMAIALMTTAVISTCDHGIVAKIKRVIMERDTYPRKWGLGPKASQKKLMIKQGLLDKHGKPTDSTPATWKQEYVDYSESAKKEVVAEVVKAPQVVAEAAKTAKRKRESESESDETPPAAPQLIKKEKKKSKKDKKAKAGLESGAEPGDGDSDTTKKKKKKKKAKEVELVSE
T1 sequence (Q9NX24 whole entry partner): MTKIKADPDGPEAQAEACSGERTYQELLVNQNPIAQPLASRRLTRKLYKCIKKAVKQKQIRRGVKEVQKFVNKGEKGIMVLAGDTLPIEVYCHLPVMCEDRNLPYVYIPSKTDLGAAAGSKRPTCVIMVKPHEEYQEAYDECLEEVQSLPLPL
T1 sequence (Q9NPE3 whole entry partner): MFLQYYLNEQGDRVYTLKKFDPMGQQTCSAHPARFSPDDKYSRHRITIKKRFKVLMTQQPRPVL
T1 sequence (Q9NY12 whole entry partner): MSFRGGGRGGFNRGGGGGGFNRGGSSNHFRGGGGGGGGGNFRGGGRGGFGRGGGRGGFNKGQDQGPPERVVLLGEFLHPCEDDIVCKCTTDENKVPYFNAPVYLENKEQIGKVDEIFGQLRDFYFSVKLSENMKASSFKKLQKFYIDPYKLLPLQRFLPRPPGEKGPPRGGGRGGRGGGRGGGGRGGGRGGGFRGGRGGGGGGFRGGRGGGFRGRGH
Description: Telomere repeat amplification protocol (TRAP) assay. It counts as biochemical. The settings on record: preliminary screening at 10 μM, gel. The procedure: Telomerase activity was detected by a modified version of the general TRAP protocol. Telomerase products were resolved by 10% polyacrylamide gel electrophoresis and visualized by staining with SYBER Green. As a source of telomerase, the total cell lysates derived from lung cancer cell line H1299 cells were used. Protein concentration of the lysates was assayed using Bio-Rad protein assay kit using BSA standards.
In the FIGS. 3A, 3B and FIG. 4, a positive control group (P) used water that had been sterilized three times in the assay; while a negative control group (N) used RNase A (CLONTECH) (5 μL, 0.1 mg/mL) in the assay.
In the positive control group (P), due to the absence of inhibitor, the telomerase could extend the telomere, such that some longer telomere fragments could be observed; while there was not observed in the negative control group (N). In the result of TRAP assay (FIG. 3A to 3B), compounds with a concentration of 10 μM was used as the preliminary screening. In the gel, standard compound A was 1,2-diaminoanthraquinone, D was doxorubicin, and M was mitoxantrone.

The test system of another test is RXF 393. Description: NCI 60-cell drug screen, one dose. It counts as cell-based, human. The settings on record: Renal Cancer RXF 393, 1.00E−5 Molar.

Molecules are shown by their SMILES.

As to `CN1CCN(Cc2nc3ccc4c(c3[nH]2)C(=O)c2ccccc2C4=O)CC1` [CL24, 2-((4-methylpiperazin-1-yl)methyl)-1H-anthra[1,2-d]imidazole-6,11-dione], in test [1], the “inhibition effect/activity of telomerase (TRAP)” value is reported as “more significant inhibition effect/activity of telomerase”.

Take `O=C1c2ccccc2C(=O)c2c1ccc1nc(CN3CCN(c4ccccn4)CC3)[nH]c21` [CL28, 2-((4-(pyridin-2-yl)piperazin-1-yl)methyl)-1H-anthra[1,2-d]imidazole-6,11-dione]: the “Growth Percent” value with RXF 393 came to 89.67%.
